Values of other authors as cited in patent publication US8791150B2, “Pharmaceutical composition for peroral administration of diindolylmethane” (Zakrytoe Aktsionernoe Obschestvo “Veles Farma”, priority 2009, dated 2014).

Columns and labels:
[1] = test system: normal (untransformed) keratinocytes; conditions: in vitro; cited from earlier work
[2] = test system: pathological neoangiogenesis; conditions: injected subcutaneously, 5 mg/kg daily; cited from earlier work
[3] = test system: cellular cervical cancer lines; conditions: one of the three cellular cervical cancer lines studied; cited from earlier work

SMILES	apoptotic changes in normal keratinocytes [1]	suppression of pathological neoangiogenesis [2] [%]	LD50 [3] [µM]
c1ccc2c(Cc3c[nH]c4ccccc34)c[nH]c2c1 [DIM, 3,3′-diindolylmethane]	did not induce any apoptotic changes	74	
OCc1c[nH]c2ccccc12 [Pluronic I3C, indole-3-carbinol]			200
